# What was measured:
# Format in all cases: cell-based
# [1] = system: asthmatic primary differentiated human airway (bronchial) epithelia; experiment: BrdU flow cytometry of mitotically active cells after scrape-wounding, asthmatic epithelia; conditions: wounded asthmatic epithelia, 20 nM 2 h pulses every 24 h, harvest +48 h, mean±SEM
# From the text: Normal (n=3) and asthmatic (n=6) primary differentiated human airway (i.e. bronchial) epithelia grown in 12-well plates on collagen-coated Transwell membrane inserts at an air-liquid interface were obtained commercially (#AIR-606 and #AIR-606-Asthma; MatTek Corporation, Ashland, Mass.). Donors underwent bronchoscopic brushing to acquire epithelial cells. Descriptive donor information provided by MatTek Corporation for the individuals from whom cells were obtained is shown in Table 1.
# (§1) On arrival, the in vitro epithelia were washed with phosphate buffered saline (PBS) and the basal medium was replaced with proprietary defined medium supplied by the manufacturer. Cells were equilibrated at 37° C. and 5% CO2 for 16 h followed by medium replacement with identical proprietary medium lacking glucocorticoids and epidermal growth factor (EGF). This condition was maintained for an additional 22 h. […]
# (§2) An in vitro epithelial injury model that allows for the study of epithelial repair processes in the lung was adapted for use in this study. […] In some experiments, wounds were imaged daily (i.e. 0, +24, +48 h) using a 16× phase contrast objective lens and wound area was measured in triplicate by a single operator blinded to the culture conditions using ImageJ Software (Rasband. ImageJ. Bethesda, Md., USA: U. S. National Institutes of Health; 1997-2009). […]
# [2] = system: normal primary differentiated human airway epithelia; experiment: Mechanical scrape-wound healing (wound area, ImageJ), normal epithelia; conditions: 20 nM 2 h pulses every 24 h
# Protocol: (§3) On arrival, the in vitro epithelia were washed with phosphate buffered saline (PBS) and the basal medium was replaced with proprietary defined medium supplied by the manufacturer. Cells were equilibrated at 37° C. and 5% CO2 for 16 h followed by medium replacement with identical proprietary medium lacking glucocorticoids and epidermal growth factor (EGF). This condition was maintained for an additional 22 h. Upon completion (i.e. −26 h on the experimental timeline shown in FIG. 1, intermittent glucocorticoid exposures began: Dexamethasone (DEX) (20 nM) or PBS vehicle (VEH) was added to the apical and basolateral epithelial surfaces for 2 h. At −24 h, the medium was replaced with glucocorticoid- and EGF-free medium. This two-hour DEX/VEH pulse was repeated every 24 h (i.e. at −2, +22, and +46 h) thereafter until cell harvest at +48 h.
# as §2
# [3] = system: asthmatic primary differentiated human airway epithelia; experiment: Mechanical scrape-wound healing (wound area, ImageJ), asthmatic epithelia; conditions: 20 nM 2 h pulses every 24 h
# Protocol: as §3, §2
# [4] = system: asthmatic primary differentiated human airway epithelia; experiment: Flow cytometric cell cycle analysis (7-AAD) of BrdU+ cells from wounded asthmatic epithelia; conditions: Example 2, wounded asthmatic epithelia, 2 h pulses at -26, -2, +22, +46 h
# Protocol: as §3
# An in vitro epithelial injury model that allows for the study of epithelial repair processes in the lung was adapted for use in this study. Briefly, at 0 h on the timeline in FIG. 1, epithelia were scraped in two perpendicular lines with a p1000 pipette tip and placed in bromodeoxyuridine (BrdU)-containing (10 μM) medium. BrdU-containing medium was changed at +24 h following the DEX/VEH pulse mentioned previously. Epithelia were incubated at 37° C. and 5% CO2 until +48 h. In some experiments, wounds were imaged daily (i.e. 0, +24, +48 h) using a 16× phase contrast objective lens and wound area was measured in triplicate by a single operator blinded to the culture conditions using ImageJ Software (Rasband. ImageJ. Bethesda, Md., USA: U. S. National Institutes of Health; 1997-2009). Contrast was enhanced equally in all images to improve wound visualization.
# Epithelia were washed once with PBS and harvested at +48 h (FIG. 1) for analysis by flow cytometry. A single cell suspension was achieved by exposure for 5 minutes with trypsin-ethylenediaminetetraacetic acid (EDTA) solution (#T3924; Sigma-Aldrich, St. Louis, Mo.) followed by filtration through a 40 μm strainer. Cells were simultaneously labeled with the following according to the manufacturers' protocols: 1) Carboxyfluorescein FLICA Apoptosis Poly-Caspase Detection Kit (Immunochemistry Technologies, LLC, Bloomington, Minn.) and 2) APC BrdU Flow Kit containing 7-AAD (amino-actinomycin-D) (BD Biosciences, San Jose, Calif.). Flow cytometry data were generated on a FACSCalibur™ System (BD Biosciences). Samples were gated to study 7-AAD content in BrdU^+FLICA^− cells. Data were analyzed by means of the cell cycle analysis feature of FlowJo 7.6 (Tree Star, Inc., Ashland, Oreg.) using a Watson (Pragmatic) model with equal coefficients of variation for the G1/G0 and G2/M peaks
# Human fully-differentiated (air-liquid interface) normal (n=3) and asthmatic (n=3) primary airway epithelia, lacking inflammatory cells, were cultured in glucocorticoid-free medium beginning at −48 h. The cells were pulsed with mitotic cell cycle synchrony-inducing (i.e. dexamethasone, simvastatin) compounds or vehicle for 2 h at −26, −2, +22, and +46 h. Cultures were mechanically scrape-wounded at 0 h and thereafter exposed continuously to bromodeoxyuridine (BrdU) to identify mitotically active cells.
# [5] = system: normal primary differentiated human airway epithelia; experiment: Flow cytometric cell cycle analysis (7-AAD) of BrdU+ cells from wounded normal epithelia; conditions: with pulse DEX, +48 h
# Protocol: as §1, §2
# Epithelia were washed once with PBS and harvested at +48 h (FIG. 1) for analysis by flow cytometry. […] Data were analyzed by means of the cell cycle analysis feature of FlowJo 7.6 (Tree Star, Inc., Ashland, Oreg.) using a Watson (Pragmatic) model with equal coefficients of variation for the G1/G0 and G2/M peaks
SMILES,"BrdU+ cells, % of total cells [1]",wound area decrease from 0 to +48 h [2],wound area decrease from 0 to +48 h [3],BrdU+ cells in G1/G0 [4],BrdU+ cells in G2/M [4],BrdU+ cells in S [4],BrdU+ cells in G1/G0 [5]
"C[C@@H]1C[C@H]2[C@@H]3CCC4=CC(=O)C=C[C@]4(C)[C@@]3(F)[C@@H](O)C[C@]2(C)[C@@]1(O)C(=O)CO [DEX, Dexamethasone]",0.55±0.13%,86.8±5.4%,75.7±9%,72±5%,20±4%,8±2%,> 70%
CCC(C)(C)C(=O)O[C@H]1C[C@@H](C)C=C2C=C[C@H](C)[C@H](CC[C@@H]3C[C@@H](O)CC(=O)O3)[C@H]21 [simvastatin],–,–,–,75±6%,14±3%,11±4%,–

# Reference: US9861642B2, “Methods for diagnosing and treating asthma” (The Children's Research Institute, priority 2010, dated 2018)
